In experiment [1] the test system is A549 (human lung carcinoma) cells. In words: Cell Viability Assay (CellTiter-Glo), A549. It counts as cell-based. The method, then:
MIA PaCa-2 (human pancreatic carcinoma; ATCC CRL-1420) or A549 (human lung carcinoma; ATCC CCL-185) cells were cultured in RPMI 1640 medium containing 10% fetal bovine serum and 1× penicillin/streptomycin/L-glutamine. Cells were seeded in 384-well plates at a density of 1.67E+04 cells/mL and incubated at 37° C., 5% CO2, overnight. Serially-diluted compound or DMSO was added to the cells, and plates were incubated at 37° C., 5% CO2 for 72 h. Cell viability was measured using a CellTiter-Glo® Luminescent Cell Viability Assay kit (Promega) according to the manufacturer's protocol. The luminescence signal of treated samples was normalized to DMSO control, and data were analyzed using a 4-parameter logistic model to calculate IC50 values.
(In general: ATP-based viability assays read luminescence as a measure of living cells.)

For another experiment, the target named is KRAS G12C (Homo sapiens (Human), UniProt P01116, C118A/G12C). Kind of experiment: 2 h coupled exchange assay. It counts as biochemical. The method, then: The term “2 h coupled exchange assay” or “20 h coupled exchange assay” as used herein refers to the assay described in the Section entitled “BIOLOGICAL EVALUATION.”
Experiment [2] deals with MIA PaCa-2 (human pancreatic carcinoma) cells. In words: Cell Viability Assay (CellTiter-Glo), MIA PaCa-2. It counts as cell-based. The method, then: Serially-diluted compound or DMSO was added to the cells, and plates were incubated at 37° C., 5% CO2 for 72 h. Cell viability was measured using a CellTiter-Glo® Luminescent Cell Viability Assay kit (Promega) according to the manufacturer's protocol. The luminescence signal of treated samples was normalized to DMSO control, and data were analyzed using a 4-parameter logistic model to calculate IC50 values.

Where [3] appears, read: read-out: Avg 2 h Coupled exchange IC50, 2 h compound pre-incubation, SOS-mediated nucleotide exchange.
Setting [4] is: Avg 2 h Coupled exchange IC50, 2 h compound pre-incubation, SOS-mediated nucleotide exchange.
The mark [5] stands for this setting: Avg 2 h Coupled exchange IC50, 2 h compound pre-incubation.
The mark [6] stands for this setting: read-out: Avg 2 h Coupled exchange IC50, 2 h compound pre-incubation.

Where two headings read alike, the source gives them in different places.

In general, IC50 refers to the point on the concentration scale where inhibition reaches its midpoint. As to “7,7-dimethyl-4-(5-methyl-1H-indazol-4-yl)-2-(2-((^2H3)-2-propenoyl)-2,6-diazaspiro[3.4]octan-6-yl)-5,6,7,8-tetrahydro-3-quinolinecarbonitrile [Example 13-1]”, the IC50 in experiment [1] (72 h) worked out at 4.89 µM; at KRAS G12C (setting [3]), 36 nM; in experiment [2] (72 h), 65 nM.
As for `C=CC(=O)N1CC2(CCN(c3nc4c(c(-c5c(C)c(C)cc6cnn(C)c56)c3C)[C@@H]3CC[C@H]4C3)C2)C1` (atropisomer, axis not shown; (M)) [Example 2-111, (M)-1-(6-((1S,8R)-5-methyl-6-(1,5,6-trimethyl-1H-indazol-7-yl)-3-azatricyclo[6.2.1.0^2,7]undeca-2,4,6-trien-4-yl)-2,6-diazaspiro[3.4]octan-2-yl)-2-propen-1-one], the IC50 was found to be 10.9 µM in experiment [1] (Homo sapiens, A549, 72 h); 3 nM against KRAS G12C (setting [4]); 210 nM in experiment [2] (Homo sapiens, MIA PaCa-2, 72 h).
Turning to `C=CC(=O)N1CC2(CCN(c3nc4c(c(-c5c(C)c(Cl)cc6cnn(C)c56)c3F)CCN(C3COC3)C4)C2)C1` (atropisomer, axis not shown; (M)) [Example 14-107, (M)-1-(6-(4-(5-chloro-1,6-dimethyl-1H-indazol-7-yl)-3-fluoro-7-(3-oxetanyl)-5,6,7,8-tetrahydro-1,7-naphthyridin-2-yl)-2,6-diazaspiro[3.4]octan-2-yl)-2-propen-1-one], the IC50 amounted to 15.3 µM in experiment [1] (Homo sapiens, A549, 72 h); 13 nM at KRAS G12C (setting [5]); 30 nM in experiment [2] (Homo sapiens, MIA PaCa-2, 72 h).
For `C=CC(=O)N1CC2(CCN(c3nc4c(c(-c5ccc(F)cc5Cl)c3C#N)CCC(c3scnc3C)=C4)C2)C1` (atropisomer, axis not shown; (M)) [Example 23-32, (M)-4-(2-chloro-4-fluorophenyl)-7-(4-methyl-1,3-thiazol-5-yl)-2-(2-(2-propenoyl)-2,6-diazaspiro[3.4]octan-6-yl)-5,6-dihydro-3-quinolinecarbonitrile], the IC50 in experiment [1] (72 h) came out at 5.5 µM; on KRAS G12C (setting [5]), 282 nM; in experiment [2] (72 h), 1950 nM.
For `C=CC(=O)N1CC2(CCN(c3nc4c(c(-c5c(C)ccc6cnn(C)c56)c3C)CCN(C3(C)COC3)C4)C2)C1` (atropisomer, axis not shown; (M)) [Example 36-2, (M)-1-(6-(4-(1,6-dimethyl-H-indazol-7-yl)-3-methyl-7-(3-methyl-3-oxetanyl)-5,6,7,8-tetrahydro-1,7-naphthyridin-2-yl)-2,6-diazaspiro[3.4]octan-2-yl)-2-propen-1-one], the IC50 stood at 25 µM in experiment [1] (72 h), 87 nM at KRAS G12C (setting [6]) and 28 nM in experiment [2] (72 h).
For the molecule `C=CC(=O)N1CC2(CCN(c3nc4c(c(-c5c(C)ccc6[nH]ncc56)c3C#N)CC(C)(C)C4)[C@@H]2C)C1` (atropisomer, axis not shown; (P)) [Example 13-54, (P)-6,6-dimethyl-4-(5-methyl-1H-indazol-4-yl)-2-((5R)-5-methyl-2-(2-propenoyl)-2,6-diazaspiro[3.4]octan-6-yl)-6,7-dihydro-5H-cyclopenta[b]pyridine-3-carbonitrile], the IC50 was more than 5 µM in experiment [1] (Homo sapiens, A549, 72 h); 17 nM on KRAS G12C (setting [4]); 58 nM in experiment [2] (Homo sapiens, MIA PaCa-2, 72 h).
Consider `C=CC(=O)N1CC2(CCN(c3nc4c(c(-c5ccc(F)cc5Cl)c3C#N)CCC(c3scnc3C)=C4)C2)C1` (atropisomer, axis not shown; (P)) [Example 23-33, (P)-4-(2-chloro-4-fluorophenyl)-7-(4-methyl-1,3-thiazol-5-yl)-2-(2-(2-propenoyl)-2,6-diazaspiro[3.4]octan-6-yl)-5,6-dihydro-3-quinolinecarbonitrile], for which the IC50 in experiment [1] (72 h) was more than 5 µM; on KRAS G12C (setting [5]), 101 nM; in experiment [2] (72 h) it was 606 nM.
In the case of `C=CC(=O)N1CC2(CCN(c3nc4ccccc4c(-c4c(C)ccc5[nH]ncc45)c3C=C)C2)C1` (atropisomer, axis not shown; (P)) [Example 26-1, (P)-1-(6-(3-ethenyl-4-(5-methyl-1H-indazol-4-yl)-2-quinolinyl)-2,6-diazaspiro[3.4]octan-2-yl)-2-propen-1-one], the figures for the IC50 (in experiment [1] (72 h); on KRAS G12C (setting [6]); in experiment [2] (72 h)) were more than 5 µM, 140 nM and 919 nM, respectively.
`C=CC(=O)N1CC2(CCN(c3nc4c(c(-c5c(C)ccc6cnn(C)c56)c3C)CCN(C3(C)COC3)C4)C2)C1` (atropisomer, axis not shown; (P)) [Example 36-3, (P)-1-(6-(4-(1,6-dimethyl-1H-indazol-7-yl)-3-methyl-7-(3-methyl-3-oxetanyl)-5,6,7,8-tetrahydro-1,7-naphthyridin-2-yl)-2,6-diazaspiro[3.4]octan-2-yl)-2-propen-1-one]: the values for the IC50 (in experiment [1] (72 h); on KRAS G12C (setting [6]); in experiment [2] (72 h)) were 18.8 µM, 65300 nM and 11000 nM, respectively.
Turning to `C=CC(=O)N1CC2(CCN(c3nc4c(c(-c5c(C)ccc6[nH]ncc56)c3C#N)CC[C@@H](C(F)(F)F)C4)C2)C1` (racemic) [Example 13-10, (7R)-4-(5-methyl-1H-indazol-4-yl)-2-(2-(2-propenoyl)-2,6-diazaspiro[3.4]octan-6-yl)-7-(trifluoromethyl)-5,6,7,8-tetrahydro-3-quinoline-carbonitrile|(7S)-4-(5-methyl-1H-indazol-4-yL)-2-(2-(2-propenoyl)-2,6-diazaspiro[3.4]octan-6-yl)-7-(trifluoromethyl)-5,6,7,8-tetrahydro-3-quinolinecarbonitrile], the results for the IC50 (in experiment [1] (72 h); at KRAS G12C (setting [3]); in experiment [2] (72 h)) were more than 5 µM, 71 nM and 246 nM, respectively.
Consider `C=CC(=O)N1CC2(CCN(c3nc4c(c(-c5c(C)ccc6[nH]ncc56)c3C#N)[C@H](C)O[C@H](C)C4)C2)C1` (racemic) [Example 13-13, (5R,7S)-5,7-dimethyl-4-(5-methyl-1H-indazol-4-yl)-2-(2-(2-propenoyl)-2,6-diazaspiro[3.4]octan-6-yl)-7,8-dihydro-5H-pyrano[4,3-b]pyridine-3-carbonitrile|(5S,7R)-5,7-dimethyl-4-(5-methyl-1H-indazol-4-yl)-2-(2-(2-propenoyl)-2,6-diazaspiro[3.4]octan-6-yl)-7,8-dihydro-5H-pyrano[4,3-b]pyridine-3-carbonitrile], for which the IC50 in experiment [1] (Homo sapiens, A549, 72 h) was more than 5 µM; at KRAS G12C (setting [4]) it was 93 nM; in experiment [2] (Homo sapiens, MIA PaCa-2, 72 h), 462 nM.
`C=CC(=O)N1CC2(CCN(c3nc4c(c(-c5cccc(C)c5C)n3)CC[C@@H](c3nccs3)C4)C2)C1` (racemic) [Example 22-3, 1-(6-((7R)-4-(2,3-dimethylphenyl)-7-(1,3-thiazol-2-yl)-5,6,7,8-tetrahydro-2-quinazolinyl)-2,6-diazaspiro[3.4]octan-2-yl)-2-propen-1-one|1-(6-((7S)-4-(2,3-dimethylphenyl)-7-(1,3-thiazol-2-yl)-5,6,7,8-tetrahydro-2-quinazolinyl)-2,6-diazaspiro[3.4]octan-2-yl)-2-propen-1-one]: the IC50 in experiment [1] (72 h) was more than 5 µM; at KRAS G12C (setting [6]) it was 281 nM; in experiment [2] (72 h) it was 3310 nM.
Regarding `C=CC(=O)N1CC2(CCN(c3nc4c(c(-c5cc(O)cc6ccccc56)c3Cl)COC(C)(C)C4)C2)C1` (single isomer, unassigned) [Example 2-78, (P)-1-(6-(3-chloro-4-(3-hydroxy-1-naphthalenyl)-7,7-dimethyl-7,8-dihydro-5H-pyrano[4,3-b]pyridin-2-yl)-2,6-diazaspiro[3,4]octan-2-yl)-2-propen-1-one], the half-maximal inhibitory concentration (IC50) was more than 5 µM in experiment [1] (Homo sapiens, A549, 72 h) and 14 nM in experiment [2] (Homo sapiens, MIA PaCa-2, 72 h).
Consider `C=CC(=O)N1CC2(CCN(c3nc4c(c(-c5cc(O)cc6ccccc56)c3F)C[C@H]3C[C@@H]4C3(C)C)C2)C1` (single isomer, unassigned) [Example 14-77], for which the IC50 in experiment [1] (Homo sapiens, A549, 72 h) was more than 5 µM.
Turning to `C=CC(=O)N1CC2(CCN(c3nc4c(c(-c5cc(O)cc6ccccc56)c3Cl)COC(C)(C)C4)C2)C1` [Example 2-76, 1-(6-(3-chloro-4-(3-hydroxy-1-naphthalenyl)-7,7-dimethyl-7,8-dihydro-5H-pyrano[4,3-b]pyridin-2-yl)-2,6-diazaspiro[3.4]octan-2-yl)-2-propen-1-one], the IC50 in experiment [1] (Homo sapiens, A549, 72 h) was more than 5 µM; in experiment [2] (Homo sapiens, MIA PaCa-2, 72 h), 26 nM.
For `C=CC(=O)N1CC2(CCN(c3nc4c(c(-c5cc(O)cc6ccccc56)c3F)C[C@H]3C[C@@H]4C3(C)C)C2)C1` [Example 14-1, 1-(6-((1R,9R)-5-fluoro-6-(3-hydroxy-1-naphthalenyl)-10,10-dimethyl-3-azatricyclo[7.1.1.0^2,7]undeca-2,4,6-trien-4-yl)-2,6-diazaspiro[3.4]octan-2-yl)-2-propen-1-one], the IC50 was more than 5 µM in experiment [1] (Homo sapiens, A549, 72 h) and 39 nM in experiment [2] (Homo sapiens, MIA PaCa-2, 72 h).

These data come from patent US20240059703A1 (AMGEN INC., priority 2021, published 2024).
